Experimental data as given in US20110301116A1, “NSAIDS-INDUCED GASTROINTESTINAL MUCOSAL DISORDER ALLEVIATOR AND MANUFACTURING METHOD THEREOF” (THE UNIVERSITY OF TOKYO, priority 2008, published 2011).

How the values were obtained:
[1] = test system: stomach ulcer model induced by NSAIDs; assay: Stomach ulcer induced by NSAIDs in rats, lyophilized NSAID and trehalose vs NSAID alone (Working Example 1); assay type: in vivo, rat; conditions: trehalose 800 mg/kg, oral, 5 hours, average±standard deviation
Experimental: Each of the test substances were adjusted by suspending or dissolving them into 0.5% CMC.Na solution. Each of 9 mL of Liquid doses was given per 1 kg weight by oral dose. 0.5% CMC.Na solutions were given to control group.
(§1) We bought Winster male rats (Japan SLC) that were 8 weeks old. We breed these rats keeping 20 to 26 degrees C., humidity of 30 to 70%, housing 2 to 3 rats in a rat breeding gage (mouse and rat breeding CE-2), giving enough amount of filtered tap water. After breeding 7 days, 5 to 10 rats per group were picked to execute the example. The rats were fasting for 24 hours without giving no food and then the rats were fed no food and no water for 1 hour just before the examination.
From 11 am on the previous day of the examination date, the rats were kept fasting and test substances were fed though mouse. After 5 hours passed, these rats were killed by carbon dioxide gas and stomachs were picked up. The duodenums were tagged. 6 mL of neutral formalin was poured from the esophagi so as to fix the stomachs for 30 minutes. The stomachs were cut along with the greater curvature. The cut stomachs were gently washed by saline, the presence of blood spot were observed by a stereoscopic microscope. The area of blood spots was measured by 0.5 mm×0.5 mm unit as an index of ulcer and the sum of each animal was calculated. The rate of suppressed ulcer was calculated, using the ulcer index for the group in which each of test sample was given and the group in which trehalose was also given, in accordance with the following equation.
(§2) Rate of suppressed ulcer(%)=[1−A/B]×100 • […]

[2] = test system: gastric mucosal disorder (ulcer) induced by NSAIDs; assay: Gastric mucosal disorder in rats: NSAID alone, mixture with trehalose, lyophilized with trehalose (Working Example 2); assay type: in vivo; conditions: rat, oral, 5 hours, trehalose 800 mg/kg
Experimental: The liquid doses were prepared on the date when the examination was executed. Weighted NSAIDs were suspended or dissolved into 0.5% CMC.Na solution to prepare doses of administrating NSAIDs only. Suspension of NSAIDs and solution of trehalose were prepared. […] For each groups the amount of dose was 8 mL per kg or rat.
as §1
From 11 am on the previous day of the examination date, the rats were kept fasting and test substances were fed though mouse. After 5 hours passed, these rats were killed by carbon dioxide gas and stomachs were picked up. The duodenums were tagged. 6 mL of neutral formalin were poured from the esophagi so as to fix the stomachs for 30 minutes. The stomachs were cut along with the greater curvature. The cut stomachs were gently washed by saline, the presence of blood spot were observed by a stereoscopic microscope.
The area of blood spots was measured by 0.5 mm×0.5 mm unit as an index of ulcer and the sum of each animals was calculated. The rate of suppressed ulcer was calculated, using the ulcer index for the group in which each of test samples were given and the group in which trehalose was also given, in accordance with the following equation.
as §2

## CC(=O)Oc1ccccc1C(=O)O [Aspirin alone, aspirin]
[1]; stomach ulcer model induced by aspirin, aspirin 200 mg/kg
  ulcer (area of blood spots, ulcer index): 10.40±2.80 mm^2
[2]; aspirin 200 mg/kg
  Ulcer index (mm^2, average ± standard deviation): 10.40 ± 2.73 mm^2
[2]; aspirin 200 mg/kg, listed as aspirin alone
  Ulcer index (mm^2, average ± standard deviation): 10.40±2.73 mm^2

## O=C(O)Cc1ccccc1Nc1c(Cl)cccc1Cl [Diclofenac alone, sodium diclofenac]
[1]; stomach ulcer model induced by diclofenac, diclofenac 40 mg/kg
  ulcer (area of blood spots, ulcer index): 4.30±0.71 mm^2
[2]; diclofenac 40 mg/kg
  Ulcer index (mm^2, average ± standard deviation): 4.30 ± 0.71 mm^2
[2]; diclofenac 40 mg/kg, listed as diclofenac alone
  Ulcer index (mm^2, average ± standard deviation): 4.30±0.71 mm^2

## COc1ccc2c(c1)c(CC(=O)O)c(C)n2C(=O)c1ccc(Cl)cc1 [Indomethacin alone, indomethacin]
[1]; stomach ulcer model induced by indomethacin, indomethacin 30 mg/kg
  ulcer (area of blood spots, ulcer index): 4.83±0.90 mm^2
[2]; indomethacin 30 mg/kg
  Ulcer index (mm^2, average ± standard deviation): 4.83 ± 0.90 mm^2
[2]; indomethacin 30 mg/kg, listed as indomethacin alone
  Ulcer index (mm^2, average ± standard deviation): 4.83±0.90 mm^2

## CC(C)Cc1ccc(C(C)C(=O)O)cc1 (stereo not shown) [ibuprofen alone, ibuprofen]
[1]; stomach ulcer model induced by ibuprofen, ibuprofen 400 mg/kg
  ulcer (area of blood spots, ulcer index): 5.35±1.86 mm^2
